Measured values as given in PubChem BioAssay (NCI).
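Compound exposure: 48 hours, 5 concentrations, 96-well plates. The concentration for 50% growth inhibition is given as GI50. TGI: concentration producing complete growth inhibition.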

How the values were obtained:
Experiment in all cases: NCI tumour cell line growth inhibition, 48 h
786-0 renal = tested on: 786-0 renal
A498 renal = tested on: A498 renal
A549 NSCLC = tested on: A549 NSCLC
ACHN renal = tested on: ACHN renal
BT-549 breast = tested on: BT-549 breast
CAKI-1 renal = tested on: CAKI-1 renal
CCRF-CEM leukemia = tested on: CCRF-CEM leukemia
COLO 205 colon = tested on: COLO 205 colon
DU-145 prostate = tested on: DU-145 prostate
HCC-2998 colon = tested on: HCC-2998 colon
HCT-116 colon = tested on: HCT-116 colon
HCT-15 colon = tested on: HCT-15 colon
HL-60(TB) leukemia = tested on: HL-60(TB) leukemia
HOP-62 NSCLC = tested on: HOP-62 NSCLC
HS 578T breast = tested on: HS 578T breast
HT29 colon = tested on: HT29 colon
IGROV1 ovarian = tested on: IGROV1 ovarian
K-562 leukemia = tested on: K-562 leukemia
KM12 colon = tested on: KM12 colon
M14 melanoma = tested on: M14 melanoma
MALME-3M melanoma = tested on: MALME-3M melanoma
MCF7 breast = tested on: MCF7 breast
MDA-MB-231 breast = tested on: MDA-MB-231 breast
MDA-MB-435 = tested on: MDA-MB-435
MOLT-4 leukemia = tested on: MOLT-4 leukemia
NCI-H226 lung = tested on: NCI-H226 lung
NCI-H23 lung = tested on: NCI-H23 lung
NCI-H460 lung = tested on: NCI-H460 lung
NCI-H522 lung = tested on: NCI-H522 lung
NCI/ADR-RES ovarian = tested on: NCI/ADR-RES ovarian
OVCAR-3 ovarian = tested on: OVCAR-3 ovarian
OVCAR-4 ovarian = tested on: OVCAR-4 ovarian
OVCAR-5 ovarian = tested on: OVCAR-5 ovarian
OVCAR-8 ovarian = tested on: OVCAR-8 ovarian
PC-3 prostate = tested on: PC-3 prostate
RPMI-8226 leukemia = tested on: RPMI-8226 leukemia
RXF 393 renal = tested on: RXF 393 renal
SF-268 CNS = tested on: SF-268 CNS
SF-295 CNS = tested on: SF-295 CNS
SF-539 CNS = tested on: SF-539 CNS
SK-MEL-28 melanoma = tested on: SK-MEL-28 melanoma
SK-MEL-5 melanoma = tested on: SK-MEL-5 melanoma
SK-OV-3 ovarian = tested on: SK-OV-3 ovarian
SN12C renal = tested on: SN12C renal
SNB-19 CNS = tested on: SNB-19 CNS
SNB-75 CNS = tested on: SNB-75 CNS
SR leukemia = tested on: SR leukemia
SW-620 colon = tested on: SW-620 colon
T-47D breast = tested on: T-47D breast
TK-10 renal = tested on: TK-10 renal
UACC-257 melanoma = tested on: UACC-257 melanoma
UACC-62 melanoma = tested on: UACC-62 melanoma
UO-31 renal = tested on: UO-31 renal

FC(F)(F)c1ccc(-c2cnc(-c3ncon3)nc2NC2CCCCCC2)cc1
GI50 (786-0 renal): 63.6 µM
TGI (786-0 renal): > 100 µM
GI50 (A498 renal): 42.9 µM
TGI (A498 renal): > 100 µM
GI50 (A549 NSCLC): 38 µM
TGI (A549 NSCLC): > 100 µM
GI50 (ACHN renal): 48.6 µM
TGI (ACHN renal): > 100 µM
GI50 (BT-549 breast): 38.5 µM
TGI (BT-549 breast): > 100 µM
GI50 (CAKI-1 renal): 67.9 µM
TGI (CAKI-1 renal): > 100 µM
GI50 (CCRF-CEM leukemia): 22.9 µM
TGI (CCRF-CEM leukemia): 60.4 µM
GI50 (COLO 205 colon): 27.7 µM
TGI (COLO 205 colon): 84.8 µM
GI50 (DU-145 prostate): 63.3 µM
TGI (DU-145 prostate): > 100 µM
GI50 (HCC-2998 colon): 56.6 µM
TGI (HCC-2998 colon): > 100 µM
GI50 (HCT-116 colon): 33.9 µM
TGI (HCT-116 colon): > 100 µM
GI50 (HCT-15 colon): 34.3 µM
TGI (HCT-15 colon): > 100 µM
GI50 (HL-60(TB) leukemia): 22.3 µM
TGI (HL-60(TB) leukemia): 48 µM
GI50 (HOP-62 NSCLC): 76.8 µM
TGI (HOP-62 NSCLC): > 100 µM
GI50 (HS 578T breast): 32.1 µM
TGI (HS 578T breast): > 100 µM
GI50 (HT29 colon): 34.7 µM
TGI (HT29 colon): > 100 µM
GI50 (IGROV1 ovarian): 52.5 µM
TGI (IGROV1 ovarian): > 100 µM
GI50 (K-562 leukemia): 34.8 µM
TGI (K-562 leukemia): > 100 µM
GI50 (KM12 colon): 36.3 µM
TGI (KM12 colon): > 100 µM
GI50 (M14 melanoma): 56.3 µM
TGI (M14 melanoma): > 100 µM
GI50 (MALME-3M melanoma): 49.8 µM
TGI (MALME-3M melanoma): > 100 µM
GI50 (MCF7 breast): 31.6 µM
TGI (MCF7 breast): > 100 µM
GI50 (MDA-MB-231 breast): 22.5 µM
TGI (MDA-MB-231 breast): 89 µM
GI50 (MDA-MB-435): 71.3 µM
TGI (MDA-MB-435): > 100 µM
GI50 (MOLT-4 leukemia): 19.8 µM
TGI (MOLT-4 leukemia): 55 µM
GI50 (NCI-H226 lung): 43.1 µM
TGI (NCI-H226 lung): > 100 µM
GI50 (NCI-H23 lung): 37 µM
TGI (NCI-H23 lung): > 100 µM
GI50 (NCI-H460 lung): 37.2 µM
TGI (NCI-H460 lung): > 100 µM
GI50 (NCI-H522 lung): 14.2 µM
TGI (NCI-H522 lung): 82.6 µM
GI50 (NCI/ADR-RES ovarian): 35.3 µM
TGI (NCI/ADR-RES ovarian): > 100 µM
GI50 (OVCAR-3 ovarian): 36.8 µM
TGI (OVCAR-3 ovarian): > 100 µM
GI50 (OVCAR-4 ovarian): 37.2 µM
TGI (OVCAR-4 ovarian): > 100 µM
GI50 (OVCAR-5 ovarian): > 100 µM
TGI (OVCAR-5 ovarian): > 100 µM
GI50 (OVCAR-8 ovarian): 32.2 µM
TGI (OVCAR-8 ovarian): > 100 µM
GI50 (PC-3 prostate): 24.6 µM
TGI (PC-3 prostate): 86.5 µM
GI50 (RPMI-8226 leukemia): 18.4 µM
TGI (RPMI-8226 leukemia): 49.3 µM
GI50 (RXF 393 renal): 28.9 µM
TGI (RXF 393 renal): > 100 µM
GI50 (SF-268 CNS): 64 µM
TGI (SF-268 CNS): > 100 µM
GI50 (SF-295 CNS): 34.5 µM
TGI (SF-295 CNS): > 100 µM
GI50 (SF-539 CNS): > 100 µM
TGI (SF-539 CNS): > 100 µM
GI50 (SK-MEL-28 melanoma): 99.2 µM
TGI (SK-MEL-28 melanoma): > 100 µM
GI50 (SK-MEL-5 melanoma): 40.7 µM
TGI (SK-MEL-5 melanoma): > 100 µM
GI50 (SK-OV-3 ovarian): > 100 µM
TGI (SK-OV-3 ovarian): > 100 µM
GI50 (SN12C renal): 21.4 µM
TGI (SN12C renal): 63 µM
GI50 (SNB-19 CNS): 29.2 µM
TGI (SNB-19 CNS): > 100 µM
GI50 (SNB-75 CNS): 50.5 µM
TGI (SNB-75 CNS): > 100 µM
GI50 (SR leukemia): 20.4 µM
TGI (SR leukemia): 56.8 µM
GI50 (SW-620 colon): 43.3 µM
TGI (SW-620 colon): > 100 µM
GI50 (T-47D breast): 25.6 µM
TGI (T-47D breast): 87.3 µM
GI50 (TK-10 renal): > 100 µM
TGI (TK-10 renal): > 100 µM
GI50 (UACC-257 melanoma): 53.2 µM
TGI (UACC-257 melanoma): > 100 µM
GI50 (UACC-62 melanoma): 48.6 µM
TGI (UACC-62 melanoma): > 100 µM
GI50 (UO-31 renal): 26.4 µM
TGI (UO-31 renal): > 100 µM
